One may read the mortality as the share of the test organisms that died.

Format in all cases: in vivo
In series [1] the test system is Beet Armyworm (Spodoptera exigua). In words: Bioassays on BAW, 128-well diet tray assay. Conditions: Spodoptera exigua, 168 h; 50 μg/cm^2 on artificial diet, second instar larvae, five to seven days; read-out: BAW % Control (or Mortality) rating.
In series [2] the test system is Cabbage Looper (Trichoplusia ni). In words: Bioassays on CL, 128-well diet tray assay. Conditions: Trichoplusia ni, 168 h; 50 μg/cm^2 on artificial diet, second instar larvae, five to seven days; read-out: CL % Control (or Mortality) rating. Summed up:
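Test molecule at 50 μg/cm^2 applied to the artificial diet surface (acetone-water) and dried; one to five second-instar T. ni larvae per well, eight wells per treatment, held at 25° C., 14:10 light-dark for five to seven days. Percent mortality averaged over wells.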

The test system of series [3] is Green Peach Aphid (Myzus persicae). In words: Bioassays on Green Peach Aphid, foliar spray on cabbage seedlings. The following applies: 72 h, 200 ppm spray on cabbage seedlings, three days, Abbott corrected % control, read-out: GPA % Control (or Mortality) rating. The procedure:
Cabbage seedlings grown in 3-inch pots, with 2-3 small (3-5 cm) true leaves, were used as test substrate. The seedlings were infested with 20-50 GPA (wingless adult and nymph stages) one day prior to chemical application. Four pots with individual seedlings were used for each treatment. Test molecules (2 mg) were dissolved in 2 mL of acetone/methanol (1:1) solvent, forming stock solutions of 1000 ppm test molecule. The stock solutions were diluted 5× with 0.025% Tween 20 in water to obtain the solution at 200 ppm test molecule. A hand-held aspirator-type sprayer was used for spraying a solution to both sides of […] leaves until runoff. Reference plants (solvent check) were sprayed with the diluent only containing 20% by volume of acetone/methanol (1:1) solvent. Treated plants were held in a holding room for three days at approximately 25° C. and ambient relative humidity (RH) prior to grading. Evaluation was conducted by counting the number of live aphids per plant under a microscope. Percent Control was measured by using Abbott's correction formula (W. S. Abbott, “A Method of Computing the Effectiveness of an Insecticide” J. Econ. Entomol. 18 (1925), pp. 265-267) as follows.
Corrected % Control=100*(X−Y)/X • where • X=No. of live aphids on solvent check plants and • Y=No. of live aphids on treated plants

The subject of series [4] is Yellow Fever Mosquito (Aedes aegypti). In words: Bioassays on Yellow Fever Mosquito larvae, 96-well plate. Conditions: from 4000 ppm DMSO master plate, about 1 day-old larvae, 3 days. Summed up:
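Aedes aegypti larvae about 1 day old, in water with liver powder, exposed in 96-well plates to compounds from a 4000 ppm DMSO master solution diluted in 90:10 water:acetone. Plates covered and held at room temperature for 3 days, then each well scored for mortality; 6 replicate plates.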

In the case of `C[C@H](CSCC(F)(F)F)NC(=O)c1ccc(/C=C/C(c2cc(Cl)c(Cl)c(Cl)c2)C(F)(F)F)cc1C(F)(F)F` (stereo partly drawn) [F22, 4-((E)-4,4,4-trifluoro-3-(3,4,5-trichlorophenyl)but-1-en-1-yl)-N—((R)-1-((2,2,2-trifluoroethyl)thio)propan-2-yl)-2-(trifluoromethyl)benzamide], the mortality at 50 µg/cm2 in series [1] and in series [2] was 50 to 100% in each case. Besides, the mortality at 200 ppm in series [3] lay in the range of 80 to 100%. In addition, the “YFM % Control (or Mortality) rating” value in series [4] was “A (80-100)”.
For `CS(=O)(=O)CC[C@@H](NC(=O)c1ccc(/C=C/C(c2cc(Cl)c(Cl)c(Cl)c2)C(F)(F)F)cc1Br)C(=O)NCC(F)(F)F` (stereo partly drawn) [F25, 2-bromo-N—((R)-4-(methylsulfonyl)-1-oxo-1-((2,2,2-trifluoroethyl)amino)butan-2-yl)-4-((E)-4,4,4-trifluoro-3-(3,4,5-trichlorophenyl)but-1-en-1-yl)benzamide], the mortality at 50 µg/cm2 in series [1] and in series [2] was 50 to 100% each time. In addition, the mortality at 200 ppm in series [3] lay within 0 to 80%. For the same compound, the “YFM % Control (or Mortality) rating” value in series [4] is on record as “A (80-100)”.
Take `CS(=O)(=O)CC[C@@H](NC(=O)c1ccc(/C=C/C(c2cc(Cl)c(Cl)c(Cl)c2)C(F)(F)F)cc1C(F)(F)F)C(=O)NCC(F)(F)F` (stereo partly drawn) [F26, N—((R)-4-(Methylsulfonyl)-1-oxo-1-((2,2,2-trifluoroethyl)amino)butan-2-yl)-4-((E)-4,4,4-trifluoro-3-(3,4,5-trichlorophenyl)but-1-en-1-yl)-2-(trifluoromethyl)benzamide]: the mortality at 50 µg/cm2 in series [1] and in series [2] was 50 to 100% each time. In series [3], the mortality at 200 ppm is 0 to 80%. For the same compound, in series [4], the “YFM % Control (or Mortality) rating” value is recorded as “B (More than 0-Less than 80)”.
As for `C[C@H](CSCC(F)(F)F)NC(=O)c1ccc(/C=C/C(c2cc(Cl)c(F)c(Cl)c2)C(F)(F)F)cc1C(F)(F)F` (stereo partly drawn) [F35, 4-((E)-3-(3,5-Dichloro-4-fluorophenyl)-4,4,4-trifluorobut-1-en-1-yl)-N—((R)-1-((2,2,2-trifluoroethyl)thio)propan-2-yl)-2-(trifluoromethyl)benzamide], the mortality at 50 µg/cm2 in series [1] and in series [2] was 50 to 100% each time. Moreover, in series [3], the mortality at 200 ppm fell in the range of 0 to 80%. For the same compound, in series [4], the “YFM % Control (or Mortality) rating” value was “A (80-100)”.
Regarding `C[C@H](CSCC(F)(F)F)NC(=O)c1ccc(/C=C/C(c2cc(Cl)c(Cl)c(Cl)c2)C(F)(F)F)cc1Br` (stereo partly drawn) [F38, 2-Bromo-4-((E)-4,4,4-trifluoro-3-(3,4,5-trichlorophenyl)but-1-en-1-yl)-N-((R)-1-((2,2,2-trifluoroethyl)thio)propan-2-yl)benzamide], the mortality at 50 µg/cm2 in series [1] and in series [2] was 50 to 100% each time. In series [3], the mortality at 200 ppm lay in the range of 0 to 80%. For the same compound, the “YFM % Control (or Mortality) rating” value in series [4] is “A (80-100)”.
For `C[C@H](CS(=O)(=O)CC(F)(F)F)NC(=O)c1ccc(/C=C/C(c2cc(Br)c(Cl)c(Br)c2)C(F)(F)F)cc1C(F)(F)F` (stereo partly drawn) [F59, 4-((E)-3-(3,5-Dibromo-4-chlorophenyl)-4,4,4-trifluorobut-1-en-1-yl)-N—((R)-1-((2,2,2-trifluoroethyl)sulfonyl)propan-2-yl)-2-(trifluoromethyl)benzamide], the mortality at 50 µg/cm2 in series [1] and in series [2] was 50 to 100% in each case. For the same compound, in series [3], the mortality at 200 ppm was 0%.
Turning to `C[C@H](CSCC(F)(F)F)NC(=O)c1ccc(/C=C/C(c2cc(Cl)c(C#N)c(Cl)c2)C(F)(F)F)cc1C(F)(F)F` (stereo partly drawn) [F109, 4-((E)-3-(3,5-Dichloro-4-cyanophenyl)-4,4,4-trifluorobut-1-en-1-yl)-N—((R)-1-((2,2,2-trifluoroethyl)thio)propan-2-yl)-2-(trifluoromethyl)benzamide], the mortality at 50 µg/cm2 in series [1] and in series [2] was 50 to 100% throughout. Also, in series [4], the “YFM % Control (or Mortality) rating” value was “A (80-100)”.
For the compound `O=C(NC1(CSCC(F)(F)F)CC1)c1ccc(/C=C/C(c2cc(Cl)c(Cl)c(Cl)c2)C(F)(F)F)cc1C(F)(F)F` (centres unmarked) [F110, (E)-4-(4,4,4-Trifluoro-3-(3,4,5-trichlorophenyl)but-1-en-1-yl)-N-(1-(((2,2,2-trifluoroethyl)thio)methyl)cyclopropyl)-2-(trifluoromethyl)benzamide], the mortality at 50 µg/cm2 in series [1] and in series [2] was 50 to 100% in each case. For the same compound, the “YFM % Control (or Mortality) rating” value in series [4] is listed as “A (80-100)”.
On to `O=C(NC1(CS(=O)(=O)CC(F)(F)F)CC1)c1ccc(/C=C/C(c2cc(Cl)c(Cl)c(Cl)c2)C(F)(F)F)cc1C(F)(F)F` (centres unmarked) [F112, (E)-4-(4,4,4-Trifluoro-3-(3,4,5-trichlorophenyl)but-1-en-1-yl)-N-(1-(((2,2,2-trifluoroethyl)sulfonyl)methyl)cyclopropyl)-2-(trifluoromethyl)benzamide], for which the mortality at 50 µg/cm2 in series [1] and in series [2] was 50 to 100% each time. Also, in series [4], the “YFM % Control (or Mortality) rating” value is reported as “A (80-100)”.
`CCSC(CNC(=O)c1ccc(/C=C/C(c2cc(Cl)c(Cl)c(Cl)c2)C(F)(F)F)cc1C(F)(F)F)SCC` (centres unmarked) [F113, (E)-N-(2,2-Bis(ethylthio)ethyl)-4-(4,4,4-trifluoro-3-(3,4,5-trichlorophenyl)but-1-en-1-yl)-2-(trifluoromethyl)benzamide]: the mortality at 50 µg/cm2 in series [1] and in series [2] was 50 to 100% in each case. Also, the “YFM % Control (or Mortality) rating” value in series [4] is given as “A (80-100)”.
As for `C[C@H](CS(=O)(=O)CC(F)(F)F)NC(=O)c1ccc(/C=C/C(c2cc(Cl)c(Cl)c(Cl)c2)C(F)F)cc1C(F)(F)F` (stereo partly drawn) [F118, 4-((E)-4,4-Difluoro-3-(3,4,5-trichlorophenyl)but-1-en-1-yl)-N—((R)-1-((2,2,2-trifluoroethyl)sulfonyl)propan-2-yl)-2-(trifluoromethyl)benzamide], the mortality at 50 µg/cm2 in series [1] and in series [2] was 50 to 100% each time. In series [4], the “YFM % Control (or Mortality) rating” value is recorded as “A (80-100)”.
`NC(=O)[C@H](CSCC(F)(F)F)NC(=O)c1ccc(/C=C/C(c2cc(Cl)c(Cl)c(Cl)c2)C(F)(F)F)cc1C(F)(F)F` (stereo partly drawn) [F125, N—((R)-1-Amino-1-oxo-3-((2,2,2-trifluoroethyl)thio)propan-2-yl)-4-((E)-4,4,4-trifluoro-3-(3,4,5-trichlorophenyl)but-1-en-1-yl)-2-(trifluoromethyl)benzamide]: the mortality at 50 µg/cm2 in series [1] and in series [2] was 50 to 100% each time. In addition, the “YFM % Control (or Mortality) rating” value in series [4] is reported as “A (80-100)”.
In the case of `CC(F)(F)C(/C=C/c1ccc(C(=O)NCCS(=O)(=O)CC(F)(F)F)c(C(F)(F)F)c1)c1cc(Cl)c(Cl)c(Cl)c1` (centres unmarked) [F126, (E)-4-(4,4-Difluoro-3-(3,4,5-trichlorophenyl)pent-1-en-1-yl)-N-(2-((2,2,2-trifluoroethyl)sulfonyl)ethyl)-2-(trifluoromethyl)benzamide], the mortality at 50 µg/cm2 in series [1] and in series [2] was 50 to 100% in each case. For the same compound, the “YFM % Control (or Mortality) rating” value in series [4] is given as “B (More than 0-Less than 80)”.
Regarding `C[C@H](CS(=O)(=O)CC(F)(F)F)NC(=O)c1ccc(/C=C/C(c2cc(Cl)c(F)c(Cl)c2)C(C)(F)F)cc1C(F)(F)F` (stereo partly drawn) [F131, 4-((E)-3-(3,5-Dichloro-4-fluorophenyl)-4,4-difluoropent-1-en-1-yl)-N—((R)-1-((2,2,2-trifluoroethyl)sulfonyl)propan-2-yl)-2-(trifluoromethyl)benzamide], the mortality at 50 µg/cm2 in series [1] and in series [2] was 50 to 100% throughout. The “YFM % Control (or Mortality) rating” value in series [4] is given as “D (No activity noticed in this bioassay)”.
With `C[C@H](CS(=O)(=O)CC(F)(F)F)NC(=O)c1ccc(/C=C/C(c2cc(Cl)cc(Cl)c2)C(C)(F)F)cc1Cl` (stereo partly drawn) [F132, 2-Chloro-4-((E)-3-(3,5-dichlorophenyl)-4,4-difluoropent-1-en-1-yl)-N—((R)-1-((2,2,2-trifluoroethyl)sulfonyl)propan-2-yl)benzamide], the mortality at 50 µg/cm2 in series [1] and in series [2] was 50 to 100% each time. Besides, the “YFM % Control (or Mortality) rating” value in series [4] is “B (More than 0-Less than 80)”.
As to `C[C@H](CS(=O)(=O)CC(F)(F)F)NC(=O)c1ccc(/C=C/C(c2cc(Cl)cc(Cl)c2)C(C)(F)F)cc1C(F)(F)F` (stereo partly drawn) [F134, 4-((E)-3-(3,5-Dichlorophenyl)-4,4-difluoropent-1-en-1-yl)-N—((R)-1-((2,2,2-trifluoroethyl)sulfonyl)propan-2-yl)-2-(trifluoromethyl)benzamide], the mortality at 50 µg/cm2 in series [1] and in series [2] was 50 to 100% each time. For the same compound, the “YFM % Control (or Mortality) rating” value in series [4] is reported as “A (80-100)”.

Source of the values: patent US20170210723A1, “MOLECULES HAVING PESTICIDAL UTILITY, AND INTERMEDIATES, COMPOSITIONS, AND PROCESSES, RELATED THERETO” (priority 2016, published 2017).
